Laboratory results reported in ChEMBL document CHEMBL4334533, “Design, synthesis, and validation of novel nitrogen-based chalcone analogs against triple negative breast cancer” (Eur J Med Chem, 2020).
The source made the active and inactive calls. No cut-off for these calls is given here.

Key:
MDA-MB-468 [1] = experiment: Induction of apoptosis in human MDA-MB-468 cells assessed as viable cells at 8 uM measured after 24 hrs by AnnexinV/7-AAD staining based flow cytometric analysis (reference value: 94.1%); format: functional; conditions: MDA-MB-468, 24 h, read-out: Activity
MDA-MB-231 [2] = experiment: Inhibition of anchorage-independent colony formation in human MDA-MB-231 cells at 5 uM measured upto 21 days by soft agar colony formation assay; format: functional, cell-based
[3] = Selectivity index, ratio of LD50 for E6/E7 immortalized human HNME cells to IC50 for human MCF7 cells
MDA-MB-231 [4] = experiment: Antimigratory activity in human MDA-MB-231 cells assessed as inhibition of cell motility after 24 hrs by microscopic analysis; format: functional, cell-based; conditions: MDA-MB-231, 24 h
MCF7 [5] = experiment: Up regulation of E-cadherin level in human MCF7 cells up to 10 uM by Western blot analysis; format: functional, cell-based
MDA-MB-231 [6] = experiment: Up regulation of E-cadherin level in human MDA-MB-231 cells up to 10 uM by Western blot analysis; format: functional, cell-based
MCF7 [7] = experiment: Induction of apoptosis in human MCF7 cells assessed as increase in BAX/Bcl2 expression ratio upto 10 uM measured after 48 hrs by western blot analysis; format: functional, cell-based
MDA-MB-231 [8] = experiment: Antitumor activity against human MDA-MB-231 cells xenografted in athymic nude mouse assessed as the reduction in tumor volume at 10 mg/kg, ip dosed 3 times per week for 45 days (reference value: 1350 mm3); format: functional
MDA-MB-468 [9] = experiment: Cell cycle arrest in human MDA-MB-468 cells assessed as accumulation at G2/M phase at 5 uM measured after 48 hrs by propidium iodide staining-based flow cytometric analysis relative to control; format: functional
MCF7 [10] = experiment: Antimigratory activity in human MCF7 cells assessed as inhibition of cell motility after 24 hrs by microscopic analysis; format: functional, cell-based; conditions: MCF7, 24 h
MDA-MB-468 [11] = experiment: Induction of apoptosis in human MDA-MB-468 cells assessed as increase in BAX/Bcl2 expression ratio upto 10 uM measured after 48 hrs by western blot analysis; format: functional, cell-based
MDA-MB-468 [12] = experiment: Antiinvasive activity in human MDA-MB-468 cells assessed as reduction in 10% FBS-induced cell invasion at 5 uM by crystal violet staining based matrigel assay relative to control; format: functional
[13] = Toxicity in athymic nude mouse xenografted with human MDA-MB-231 cells assessed as behavioral change at 10 mg/kg, ip administered for 14 days; format: organism-based; conditions: in vivo, 336 h
MDA-MB-231 [14] = experiment: Down regulation of FAK level in human MDA-MB-231 cells up to 10 uM by Western blot analysis; format: functional, cell-based
MDA-MB-468 [15] = experiment: Induction of morphological changes in human MDA-MB-468 cells assessed as mesenchymal-epithelial transition at 10 uM by inverted microscopic analysis; format: functional, cell-based
MDA-MB-468 [16] = experiment: Induction of apoptosis in human MDA-MB-468 cells assessed as necrotic cells at 8 uM measured after 48 hrs by AnnexinV/7-AAD staining based flow cytometric analysis (reference value: 0.51%); format: functional
MDA-MB-468 [17] = experiment: Induction of apoptosis in human MDA-MB-468 cells assessed as late apoptotic cells at 8 uM measured after 24 hrs by AnnexinV/7-AAD staining based flow cytometric analysis (reference value: 1.86%); format: functional
[18] = Toxicity in athymic nude mouse xenografted with human MDA-MB-231 cells assessed as change in food intake at 10 mg/kg, ip administered measured for 14 days; format: organism-based; conditions: in vivo, 336 h
[19] = Selectivity index, ratio of LD50 for E6/E7 immortalized human HNME cells to IC50 for human MDA-MB-468 cells
MCF7 [20] = experiment: Induction of morphological changes in human MCF7 cells assessed as mesenchymal-epithelial transition at 10 uM by inverted microscopic analysis; format: functional, cell-based
MDA-MB-231 [21] = experiment: Antiinvasive activity in human MDA-MB-231 cells assessed as reduction in 10% FBS-induced cell invasion at 5 uM by crystal violet staining based matrigel assay relative to control; format: functional; parameters: scale not given: the % may be the effect or the level left
MDA-MB-231 [22] = experiment: Antimigratory activity in human MDA-MB-231 cells assessed as wound diameter at 5 uM measured after 24 hrs by microscopic analysis; format: functional, cell-based
MDA-MB-231 [23] = experiment: Antimigratory activity in human MDA-MB-231 cells assessed as wound diameter measured after 24 hrs by microscopic analysis (reference value: 29.5 +/- 1.95%); format: functional
MDA-MB-468 [24] = experiment: Induction of apoptosis in human MDA-MB-468 cells assessed as necrotic cells at 8 uM measured after 24 hrs by AnnexinV/7-AAD staining based flow cytometric analysis (reference value: 0.62%); format: functional
MDA-MB-468 [25] = experiment: Induction of apoptosis in human MDA-MB-468 cells assessed as late apoptotic cells at 8 uM measured after 48 hrs by AnnexinV/7-AAD staining based flow cytometric analysis (reference value: 2.83%); format: functional
MDA-MB-231 [26] = experiment: Induction of morphological changes in human MDA-MB-231 cells assessed as mesenchymal-epithelial transition at 10 uM by inverted microscopic analysis; format: functional, cell-based
MDA-MB-231 [27] = experiment: Antitumor activity against human MDA-MB-231 cells xenografted in athymic nude mouse assessed as the reduction in tumor weight at 10 mg/kg, ip dosed 3 times per week for 45 days (reference value: 1.58 +/- 0.283 g); format: functional
MDA-MB-231 [28] = experiment: Inhibition of tumor growth in human MDA-MB-231 cells xenografted in nude mouse; format: functional
MCF7 [29] = experiment: Inhibition of anchorage-independent colony formation in human MCF7 cells at 5 uM measured upto 21 days by soft agar colony formation assay; format: functional, cell-based
MDA-MB-231 [30] = experiment: Antiproliferative activity against human MDA-MB-231 cells assessed as inhibition of cell growth measured after 48 hrs by microplate reader analysis; format: functional, cell-based; conditions: MDA-MB-231, 48 h
MDA-MB-468 [31] = experiment: Antiproliferative activity against human MDA-MB-468 cells assessed as inhibition of cell growth measured after 48 hrs by microplate reader analysis; format: functional, cell-based; conditions: MDA-MB-468, 48 h
[32] = Toxicity in athymic nude mouse xenografted with human MDA-MB-231 cells assessed as change in body weight at 10 mg/kg, ip administered for 14 days; format: organism-based; conditions: in vivo, 336 h
MDA-MB-468 [33] = experiment: Induction of apoptosis in human MDA-MB-468 cells assessed as early apoptotic cells at 8 uM measured after 48 hrs by AnnexinV/7-AAD staining based flow cytometric analysis (reference value: 4.15%); format: functional
[34] = Cytotoxicity against E6/E7 immortalized human HNME cells assessed as inhibition of cell growth measured after 48 hrs by microplate reader analysis; format: cell-based; conditions: read-out: LD50
[35] = Toxicity in athymic nude mouse xenografted with human MDA-MB-231 cells assessed as effect on survival rate at 10 mg/kg, ip dosed 5 times per week preincubated for 15 days measured after 30 days; format: organism-based; conditions: in vivo, 720 h
MCF7 [36] = experiment: Up regulation of pan-cadherin level in human MCF7 cells up to 10 uM by Western blot analysis; format: functional, cell-based
Chorioallantoic membrane [37] = experiment: Antiangiogenic activity in Leghorn chicken fertilized egg chorioallantoic membrane assessed as reduction in number of blood vessels at 4 ug measured after 4 days by microscopic analysis relative to control; format: functional, tissue-based; parameters: scale not given: the % may be the effect or the level left; conditions: Gallus gallus
MDA-MB-231 [38] = experiment: Cell cycle arrest in human MDA-MB-231 cells assessed as accumulation at G2/M phase at 5 uM measured after 48 hrs by propidium iodide staining-based flow cytometric analysis relative to control; format: functional
MDA-MB-468 [39] = experiment: Inhibition of anchorage-independent colony formation in human MDA-MB-468 cells at 5 uM measured upto 21 days by soft agar colony formation assay; format: functional, cell-based
MCF7 [40] = experiment: Growth inhibition in human MCF7 cells at 10 uM after 48 hrs by MTT assay; format: functional, cell-based
MDA-MB-468 [41] = experiment: Induction of apoptosis in human MDA-MB-468 cells assessed as viable cells at 8 uM measured after 48 hrs by AnnexinV/7-AAD staining based flow cytometric analysis (reference value: 92.5%); format: functional; conditions: MDA-MB-468, 48 h, read-out: Activity
[42] = Selectivity index, ratio of LD50 for E6/E7 immortalized human HNME cells to IC50 for human MDA-MB-231 cells
MDA-MB-231 [43] = experiment: Growth inhibition in human MDA-MB-231 cells at 10 uM after 48 hrs by MTT assay; format: functional, cell-based
MDA-MB-231 [44] = experiment: Up regulation of pan-cadherin level in human MDA-MB-231 cells up to 10 uM by Western blot analysis; format: functional, cell-based
MCF7 [45] = experiment: Antiinvasive activity in human MCF7 cells assessed as reduction in 10% FBS-induced cell invasion at 5 uM by crystal violet staining based matrigel assay relative to control; format: functional
MDA-MB-231 [46] = experiment: Antitumor activity against human MDA-MB-231 cells xenografted in athymic nude mouse assessed as time delay in tumor growth at 10 mg/kg, ip dosed 5 times per week preincubated for 15 days measured after 30 days relative to control; format: functional, organism-based
MDA-MB-231 [47] = experiment: Antitumor activity against human MDA-MB-231 cells xenografted in athymic nude mouse assessed as the inhibition of tumor growth at 10 mg/kg, ip dosed 3 times per week for 45 days relative to control; format: functional; conditions: MDA-MB-231, ip, 1080 h
MDA-MB-468 [48] = experiment: Induction of apoptosis in human MDA-MB-468 cells assessed as early apoptotic cells at 8 uM measured after 24 hrs by AnnexinV/7-AAD staining based flow cytometric analysis (reference value: 3.45%); format: functional
MCF7 [49] = experiment: Antiproliferative activity against human MCF7 cells assessed as inhibition of cell growth measured after 48 hrs by microplate reader analysis; format: functional, cell-based; conditions: MCF7, 48 h
Chorioallantoic membrane [50] = experiment: Antiangiogenic activity in Leghorn chicken fertilized egg chorioallantoic membrane assessed as reduction in number of blood vessels at 4 ug measured after 4 days by microscopic analysis; format: functional, tissue-based; conditions: Gallus gallus

## COc1cccc(C(=O)/C=C/c2ccc(N(CCCl)CCCl)cc2)c1
MDA-MB-468 [1]
  viability at 8 µM: 88.2%
MDA-MB-231 [2]
  inhibition: Active
[3]
  Ratio LD50/IC50: 3.31
MDA-MB-231 [4]
  IC50: 3 µM
MCF7 [5]
  Activity: Active
MDA-MB-231 [6]
  Activity: Active
MCF7 [7]
  Activity: Active
MDA-MB-231 [8]
  Activity: 487.26 mm3
MDA-MB-468 [9]
  Activity: 66.45%
MCF7 [10]
  IC50: 2.44 µM
MDA-MB-468 [11]
  Activity: Active
MDA-MB-468 [12]
  Activity: Active
[13]
  Activity: Non-Toxic
MDA-MB-231 [14]
  Activity: Active
MDA-MB-468 [15]
  Activity: Active
MDA-MB-468 [16]
  Activity: 3.63%
MDA-MB-468 [17]
  Activity: 2.13%
[18]
  Activity: Non-Toxic
[19]
  Ratio LD50/IC50: 2.92
MCF7 [20]
  Activity: Active
MDA-MB-231 [21]
  Activity: 80%
MDA-MB-231 [22]
  Activity: Active
MDA-MB-231 [23]
  inhibition (INH): 67.89%
MDA-MB-468 [24]
  Activity: 0.61%
MDA-MB-468 [25]
  Activity: 11.1%
MDA-MB-231 [26]
  Activity: Active
MDA-MB-231 [27]
  Activity: 0.88 g
MDA-MB-231 [28]
  inhibition (INH): 57%
MCF7 [29]
  colony formation inhibition (activity call): Active
MDA-MB-231 [30]
  IC50: 8 µM
MDA-MB-468 [31]
  IC50: 7.3 µM
[32]
  Activity: Non-Toxic
MDA-MB-468 [33]
  Activity: 28%
[34]
  CC50 at 48 h: 21.3 µM
[35]
  Activity: Non-Toxic
MCF7 [36]
  Activity: Active
Chorioallantoic membrane [37]
  Activity: 60.2%
MDA-MB-231 [38]
  Activity: 47.27%
MDA-MB-468 [39]
  colony formation inhibition (active/inactive): Active
MCF7 [40]
  growth inhibition (GI): Active
MDA-MB-468 [41]
  viability at 8 µM: 57.3%
[42]
  Ratio LD50/IC50: 2.66
MDA-MB-231 [43]
  growth inhibition (GI): Active
MDA-MB-231 [44]
  Activity: Active
MCF7 [45]
  Activity: Active
MDA-MB-231 [46]
  Activity: Active
MDA-MB-231 [47]
  inhibition in vivo at 10 mg/kg: 46.4%
MDA-MB-468 [48]
  Activity: 9.04%
MCF7 [49]
  IC50: 6.43 µM

## CSc1ccc(C(=O)/C=C/c2ccc(N3CCOCC3)cc2)cc1
MDA-MB-231 [4]
  IC50: 4.8 µM
MDA-MB-231 [22]
  Activity: Active
Chorioallantoic membrane [50]
  Activity: Active

## COc1cc2c(c(OC)c1OC)-c1ccc(OC)c(=O)cc1[C@@H](NC(C)=O)CC2
MDA-MB-231 [2]
  inhibition: Active
MDA-MB-231 [22]
  Activity: Active
MCF7 [29]
  inhibition: Active
MDA-MB-468 [39]
  colony formation inhibition (active/inactive): Active

## CC(=O)O[C@H]1C(=O)[C@@]2(C)[C@H]([C@H](OC(=O)c3ccccc3)[C@]3(O)C[C@H](OC(=O)[C@H](O)[C@@H](NC(=O)c4ccccc4)c4ccccc4)C(C)=C1C3(C)C)[C@]1(OC(C)=O)CO[C@@H]1C[C@@H]2O [PACLITAXEL]
MDA-MB-231 [2]
  inhibition: Active
MDA-MB-231 [4]
  IC50: 2.01 µM
MDA-MB-231 [22]
  Activity: Active
MCF7 [29]
  colony formation inhibition (activity call): Active
MDA-MB-468 [39]
  colony formation inhibition (active/inactive): Active
